{
  "source": "ChEMBL document CHEMBL1201862",
  "about": "“PubChem BioAssay data set” (2004)",
  "type_in_all_cases": "functional",
  "key": {"[1]": {"target": "T1, High affinity choline transporter 1 (Homo sapiens, UniProt Q9GZV3)", "T1 sequence (Q9GZV3 whole entry)": "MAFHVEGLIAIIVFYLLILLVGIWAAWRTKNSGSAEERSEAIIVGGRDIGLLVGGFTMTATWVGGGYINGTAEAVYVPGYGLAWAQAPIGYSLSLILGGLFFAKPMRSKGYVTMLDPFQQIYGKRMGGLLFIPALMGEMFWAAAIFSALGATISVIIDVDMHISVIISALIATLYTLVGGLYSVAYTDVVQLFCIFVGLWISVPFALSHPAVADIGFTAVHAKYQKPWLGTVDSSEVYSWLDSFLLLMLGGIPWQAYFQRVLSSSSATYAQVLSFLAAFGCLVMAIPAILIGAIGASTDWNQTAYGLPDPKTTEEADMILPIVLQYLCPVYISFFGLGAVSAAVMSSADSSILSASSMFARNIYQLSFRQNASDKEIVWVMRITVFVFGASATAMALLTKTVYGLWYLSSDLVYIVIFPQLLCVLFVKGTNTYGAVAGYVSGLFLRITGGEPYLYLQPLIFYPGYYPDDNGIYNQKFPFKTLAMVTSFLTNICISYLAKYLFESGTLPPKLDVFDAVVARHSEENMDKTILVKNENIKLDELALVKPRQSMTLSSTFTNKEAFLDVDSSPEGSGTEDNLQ", "assay": "human choline transporter blockers, potency – cell-based, 10-point CRC, membrane potential dye, dose response (AID 588401);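 note: membrane potential dye fluorescence of choline-evoked depolarization via CHT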"}, "[2]": {"assay": "viability loss in HeLa cells – cytotoxicity control for MgcRacGAP inhibitor project, dose response (AID 624300)"}, "[3]": {"target": "T1, High affinity choline transporter 1", "assay": "human choline transporter blockers, potency – cell-based, 5-point CRC, membrane potential dye, dose response (AID 504840)"}, "[4]": {"target": "T2, Rac GTPase-activating protein 1 (Homo sapiens, UniProt Q9H0H5)", "T2 sequence (Q9H0H5 whole entry)": "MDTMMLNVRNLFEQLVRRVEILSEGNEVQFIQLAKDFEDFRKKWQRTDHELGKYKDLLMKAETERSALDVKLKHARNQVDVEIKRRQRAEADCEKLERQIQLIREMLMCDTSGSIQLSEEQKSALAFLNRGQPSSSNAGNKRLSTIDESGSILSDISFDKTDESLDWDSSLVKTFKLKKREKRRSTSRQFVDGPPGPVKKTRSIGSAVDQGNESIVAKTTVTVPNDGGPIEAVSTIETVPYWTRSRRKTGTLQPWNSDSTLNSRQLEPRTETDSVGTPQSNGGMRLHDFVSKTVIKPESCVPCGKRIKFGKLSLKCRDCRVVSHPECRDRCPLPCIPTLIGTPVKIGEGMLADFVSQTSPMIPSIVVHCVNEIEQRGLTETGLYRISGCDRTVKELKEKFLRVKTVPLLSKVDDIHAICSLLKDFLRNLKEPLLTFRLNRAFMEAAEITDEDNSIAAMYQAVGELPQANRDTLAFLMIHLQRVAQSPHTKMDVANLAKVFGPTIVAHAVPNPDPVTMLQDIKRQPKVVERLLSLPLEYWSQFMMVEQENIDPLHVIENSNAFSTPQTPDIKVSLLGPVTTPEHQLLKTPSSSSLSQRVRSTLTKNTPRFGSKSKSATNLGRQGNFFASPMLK", "assay": "blockers of MgcRacGAP-driven Rac1 GTP hydrolysis – biochemical, ADP Hunter fluorescence, primary and confirmatory, confirmation (AID 624330)"}, "Vero": {"system": "Vero", "assay": "inhibition of WNV-induced cytopathic effect – cell-based, CPE readout (AID 1621)", "settings": "Chlorocebus sabaeus"}, "[5]": {"assay": "SAR analysis of small molecule activators of Apaf-1 using a LZ-Caspase-9/Caspase-3 Fluorescent Selectivity assay - Set 2.", "settings": "read-out: EC50_Mean"}, "[6]": {"target": "T3, Apoptotic protease-activating factor 1 (Homo sapiens, UniProt O14727)", "T3 sequence (O14727 whole entry)": "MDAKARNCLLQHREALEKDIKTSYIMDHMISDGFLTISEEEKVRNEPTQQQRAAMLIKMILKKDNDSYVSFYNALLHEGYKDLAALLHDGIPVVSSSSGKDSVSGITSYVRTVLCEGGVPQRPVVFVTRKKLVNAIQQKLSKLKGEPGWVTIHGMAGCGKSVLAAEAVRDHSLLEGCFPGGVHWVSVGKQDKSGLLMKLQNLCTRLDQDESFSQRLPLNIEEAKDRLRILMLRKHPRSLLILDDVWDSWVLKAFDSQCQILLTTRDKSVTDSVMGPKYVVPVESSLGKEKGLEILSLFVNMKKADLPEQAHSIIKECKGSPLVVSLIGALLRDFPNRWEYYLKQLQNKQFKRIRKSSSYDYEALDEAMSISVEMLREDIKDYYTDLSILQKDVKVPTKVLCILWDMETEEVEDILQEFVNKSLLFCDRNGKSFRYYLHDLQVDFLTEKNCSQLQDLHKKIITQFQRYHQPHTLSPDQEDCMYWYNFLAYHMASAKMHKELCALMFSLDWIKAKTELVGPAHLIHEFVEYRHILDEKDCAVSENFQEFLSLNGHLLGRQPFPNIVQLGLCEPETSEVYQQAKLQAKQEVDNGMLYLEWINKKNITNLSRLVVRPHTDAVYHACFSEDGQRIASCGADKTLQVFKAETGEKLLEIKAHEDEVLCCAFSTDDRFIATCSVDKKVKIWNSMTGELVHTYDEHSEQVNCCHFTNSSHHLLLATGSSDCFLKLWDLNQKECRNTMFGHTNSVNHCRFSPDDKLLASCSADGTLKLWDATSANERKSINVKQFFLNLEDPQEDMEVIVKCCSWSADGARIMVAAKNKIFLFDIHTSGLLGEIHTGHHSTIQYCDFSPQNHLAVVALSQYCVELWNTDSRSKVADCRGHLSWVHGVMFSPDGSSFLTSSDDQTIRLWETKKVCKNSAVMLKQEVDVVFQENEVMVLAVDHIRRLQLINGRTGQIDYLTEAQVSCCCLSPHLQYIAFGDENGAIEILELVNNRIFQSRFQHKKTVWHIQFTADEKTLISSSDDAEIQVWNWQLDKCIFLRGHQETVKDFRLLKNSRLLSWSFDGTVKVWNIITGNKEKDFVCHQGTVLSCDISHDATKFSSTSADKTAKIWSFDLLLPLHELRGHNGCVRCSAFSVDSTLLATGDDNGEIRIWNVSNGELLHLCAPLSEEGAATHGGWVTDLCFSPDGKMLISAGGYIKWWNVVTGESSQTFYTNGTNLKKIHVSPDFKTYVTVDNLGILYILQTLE", "assay": "SAR analysis of small molecule Activators of Apaf-1 in a Fluorescent assay - set 2.", "settings": "read-out: EC50_Mean"}},
  "note": "Active and inactive are the calls of the source.",
  "data": [
    {"smiles": "CCN(CC)CCCC(C)NC(=O)c1c(NC(=O)c2ccccc2)sc2c1CCCC2", "note": "(configuration not stated)", "values": [
      {"measurement": "IC50", "setting": "[1]", "value": "3.36 µM (active)"},
      {"measurement": "CC50", "setting": "[2]", "value": "100 µM (active)"},
      {"measurement": "IC50", "setting": "[3]", "value": "2.41 µM (active)"},
      {"measurement": "IC50", "setting": "[4]", "value": "144 µM (active)"},
      {"measurement": "IC50", "setting": "Vero", "value": "21.4 µM (active)"}
    ]},
    {"smiles": "COc1ccccc1C1=NOC(C(=O)O)C1", "note": "(configuration not stated)", "values": [
      {"measurement": "EC50", "setting": "[5]", "value": "> 100 µM (inactive)"},
      {"measurement": "EC50", "setting": "[6]", "value": "> 100 µM (inactive)"}
    ]}
  ]
}
